Biological target: T1, Fenugreek β-amylase
T1 construct: gene BMY1; native, purified from ungerminated seeds (acetone, DEAE-cellulose, glycogen precipitation)
Assay: starch hydrolysis assay, Dixon plot
Type: biochemical, Trigonella foenum-graecum
Settings: competitive; starch substrate, pH 5.0, 30°C, 10 min preincubation

Compound | Ki [mM]
OC[C@H]1O[C@@](CO)(O[C@H]2O[C@H](CO)[C@@H](O)[C@H](O)[C@H]2O)[C@@H](O)[C@@H]1O [sucrose] | 2.32
OC[C@H]1O[C@@H]2O[C@H]3[C@H](O)[C@@H](O)[C@@H](O[C@H]4[C@H](O)[C@@H](O)[C@@H](O[C@H]5[C@H](O)[C@@H](O)[C@@H](O[C@H]6[C@H](O)[C@@H](O)[C@@H](O[C@H]7[C@H](O)[C@@H](O)[C@@H](O[C@H]1[C@H](O)[C@H]2O)O[C@@H]7CO)O[C@@H]6CO)O[C@@H]5CO)O[C@@H]4CO)O[C@@H]3CO [α-cyclodextrin] | 3.97

From article PMC3925156, “Β-Amylase from Starchless Seeds of Trigonella Foenum-Graecum and Its Localization in Germinating Seeds” (PLoS ONE, 2014)
